The values that follow come from patent US8269000B2, “Substituted pyrimidine and triazine compounds” (Gruenenthal GmbH, priority 2008, dated 2012).

Each structure is given as a SMILES string.

For one assay, the target named is T1, rat B1R (Rattus norvegicus, UniProt P97583).
T1 construct: expressed in transfected cells; host or cells: CHO K1 cells
T1 sequence (P97583 1-337): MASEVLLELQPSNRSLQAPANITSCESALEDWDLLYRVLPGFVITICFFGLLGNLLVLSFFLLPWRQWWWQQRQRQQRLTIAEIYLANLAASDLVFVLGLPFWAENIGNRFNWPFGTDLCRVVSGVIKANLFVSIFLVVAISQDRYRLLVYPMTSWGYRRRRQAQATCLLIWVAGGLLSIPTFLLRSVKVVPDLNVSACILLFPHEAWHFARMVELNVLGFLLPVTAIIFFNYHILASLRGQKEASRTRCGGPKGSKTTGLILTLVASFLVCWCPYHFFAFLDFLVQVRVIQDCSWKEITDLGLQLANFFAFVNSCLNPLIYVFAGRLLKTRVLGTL
In words: FLIPR Ca2+ functional study on bradykinin receptor 1 (rB1R CHO K1 cells). Format: cell-based. As to conditions: % inhibition rat B1R at 10 μM. Here is the method:
The agonistic or antagonistic activity of substances can be quantified on the bradykinin receptor 1 (B1R) of the species human and rat using ectopically expressing cell lines (CHO K1 cells) and with the aid of a Ca^2+-sensitive dye (Fluo-4) using a fluorescent imaging plate reader (FLIPR). The indication in % activation is based on the Ca^2+ signal after addition of Lys-Des-Arg^9-bradykinin (0.5 nM) or Des-Arg^9-bradykinin (100 nM). Antagonists lead to suppression of the Ca^2+ influx after the addition of the agonist. % Inhibition compared with the maximum achievable inhibition is indicated.
The agonistic or antagonistic activity of substances can be determined on the bradykinin receptor 1 (B1R) of the species human and rat using the following assay. According to this assay, the Ca^2+ influx through the channel is quantified with the aid of a Ca^2+-sensitive dye (Fluo-4 type, Molecular Probes Europe BV, Leiden, Netherlands) using a Fluorescent Imaging Plate Reader (FLIPR, Molecular Devices, Sunnyvale, USA).
Chinese hamster ovary cells (CHO K1 cells) which have been stably transfected with the human B1R gene (hB1R cells) or with the B1R gene of the rat (rB1R cells) are used. For functional studies, the cells are plated out on black 96-well plates having a clear base (BD Biosciences, Heidelberg, Germany or Greiner, Frickenhausen, Germany) in a density of 20,000-35,000 cells/well. The cells are left overnight at 37° C. and with 5% CO2 in culture medium (hB1R cells: Nutrient Mixture Ham's F12, Gibco Invitrogen GmbH, Karlsruhe, Germany or DMEM, Sigma-Aldrich, Taufkirchen, Germany; rB1R cells: D-MEM/F12, Gibco Invitrogen GmbH, Karlsruhe, Germany), with 10 vol.% FBS (fetal bovine serum, Gibco Invitrogen GmbH, Karlsruhe, Germany or PAN Biotech GmbH, Aidenbach, Germany). On the following day, the cells are loaded for 60 minutes at 37° C. with 2.13 μM Fluo-4 (Molecular Probes Europe BV, Leiden, Netherlands) in HBSS buffer (Hank's buffered saline solution, Gibco Invitrogen GmbH, Karlsruhe, Germany) […] (Sigma-Aldrich, Taufkirchen, Germany) and 10 mM HEPES (Sigma-Aldrich, Taufkirchen, Germany). The plates are then washed twice with HBSS buffer, and HBSS buffer additionally containing 0.1% BSA (bovine serum albumin; Sigma-Aldrich, Taufkirchen, Germany), 5.6 mM glucose and 0.05% gelatin (Merck KGaA, Darmstadt, Germany) is added to the plates. After incubation for a further 20 minutes at room temperature, the plates are inserted into the FLIPR for Ca^2+ measurement. Alternatively, washing is carried out with buffer A (15 mM HEPES, 80 mM NaCl, 5 mM KCl, 1.2 mM CaCl2, 0.7 mM MgSO4, 2 g/l glucose, 2.5 mM probenecid) followed by loading with buffer A with added 2.5 μM Fluo-4 and 0.025% Pluronic F127 (Sigma-Aldrich, Taufkirchen, Germany). The cells are then washed twice with buffer A and incubated for 30 minutes at room temperature with buffer A additionally containing 0.05% BSA and 0.05% gelatin and are then inserted into the FLIPR for Ca^2+ measurement. The Ca^2+-dependent fluorescence is measured before and after the addition of substances (λex=488 nm, λem=540 nm). Quantification is carried out by measuring the highest fluorescence intensity (FC, fluorescence counts) over time.
The FLIPR protocol consists of two substance additions. Test substances (10 μM) are first pipetted onto the cells and the Ca^2+ influx is compared with the control (hB1R: Lys-Des-Arg^9-bradykinin>=50 nM; rB1R: Des-Arg^9-bradykinin 10 μM). This gives the activation in %, based on the Ca^2+ signal after addition of Lys-Des-Arg^9-bradykinin (>=50 nM) or Des-Arg^9-bradykinin (10 μM). After 10-20 minutes' incubation, Lys-Des-Arg^9-bradykinin (hB1R) or Des-Arg^9-bradykinin (rB1R) is applied in the concentration of the EC80, and the influx of Ca^2+ is likewise determined. Antagonists lead to suppression of the Ca^2+ influx. The % inhibition compared with the maximum achievable inhibition is calculated. […]
As to `COc1cc(C)c(S(=O)(=O)N(C)CCOc2nccc(N3CCC(CCN4CCCCC4)CC3)n2)c(C)c1` [G_CC-031], the “% inh. (rat B1R) 10 μM” value turned out to be 104%.
In the case of `COc1cc(C)c(S(=O)(=O)N2CC(Oc3ccnc(N(C)CCN4CCC(c5ccccc5)(N5CCCC5)CC4)n3)C2)c(C)c1` [H_CC-070], the “% inh. (rat B1R) 10 μM” value is 53%.

Staying with this assay, now noted: % inhibition rat B1R at 10 μM, 10 µM.
Take `COc1cc(C)c(S(=O)(=O)N(C)CCOc2nccc(N(C)CCN3CCC(c4ccccc4)(N(C)C)CC3)n2)c(C)c1` [G_CC-098, N-[2-[4-[2-(4-dimethylamino-4-phenyl-piperidin-1-yl)-ethyl-methyl-amino]-pyrimidin-2-yl]oxy-ethyl]-4-methoxy-N,2,6-trimethyl-benzenesulfonic acid amide]: the “% inh. (rat B1R) 10 μM” value stood at 79%.

The same assay, now with this note: CHO-K1, % inhibition rat B1R at 10 μM, read-out: % inh. (rat B1R) 10 μM.
Take `COc1cc(C)c(S(=O)(=O)N2c3ccccc3C[C@H]2COc2nccc(N3CC4CC3CN4Cc3ccc(F)cc3)n2)c(C)c1` (stereo partly drawn) [G_CC-130, (2S)-2-[[4-[2-[(4-fluorophenyl)-methyl]-2,5-diazabicyclo[2.2.1]heptan-5-yl]-pyrimidin-2-yl]oxy-methyl]-1-[(4-methoxy-2,6-dimethyl-phenyl)sulfonyl]-2,3-dihydro-1H-indole]: the inhibition at 10 µM came to 61%.
On the same count and under the same terms, under `COc1cc(C)c(S(=O)(=O)N2CCCC(Oc3nccc(N4CCC(c5ccccc5)(N5CCCC5)CC4)n3)C2)c(C)c1` (stereo not shown) [G_CC-114, 2-[1-[(4-methoxy-2,6-dimethyl-phenyl)sulfonyl]-piperidin-3-yl]oxy-4-(4-phenyl-4-pyrrolidin-1-yl-piperidin-1-yl)-pyrimidine] stands 54%.
In the case of `COc1cc(C)c(S(=O)(=O)N2CCC[C@H]2COc2nccc(N3CCC(n4c(=O)[nH]c5cc(Cl)ccc54)CC3)n2)c(C)c1` [G_CC-034, 6-chloro-3-[1-[2-[[(2S)-1-(4-methoxy-2,6-dimethylphenyl)sulfonyl-2-pyrrolidinyl]methoxy]-4-pyrimidinyl]-4-piperidinyl]-1H-benzimidazol-2-one], the inhibition at 10 µM was determined as 93%.
Turning to `COc1cc(C)c(S(=O)(=O)N2CCC[C@H]2COc2ccnc(N3CCC(c4cccs4)(N(C)C)CC3)n2)c(C)c1` [H_CC-086, [1-[4-[[(2S)-1-[(4-methoxy-2,6-dimethyl-phenyl)sulfonyl]-pyrrolidin-2-yl]-methoxy]-pyrimidin-2-yl]-4-thiophen-2-yl-piperidin-4-yl]-dimethyl-amine], the inhibition at 10 µM came out at 66%.
Still for that read-out and setting: under `COc1cc(C)c(S(=O)(=O)N2CC(Oc3nccc(N(C)CCN4CCC(c5ccccc5)(N5CCCC5)CC4)n3)C2)c(C)c1` [G_CC-124, [2-[1-[(4-methoxy-2,6-dimethyl-phenyl)sulfonyl]-azetidin-3-yl]oxy-pyrimidin-4-yl]-methyl-[2-(4-phenyl-4-pyrrolidin-1-yl-piperidin-1-yl)-ethyl]amine] stands 57%; under `COc1cc(C)c(S(=O)(=O)N(C)CCOc2nccc(N3CCC(c4cccs4)(N(C)C)CC3)n2)c(C)c1` [G_CC-118, N-[2-[4-(4-dimethylamino-4-thiophen-2-yl-piperidin-1-yl)-pyrimidin-2-yl]oxy-ethyl]-4-methoxy-N,2,6-trimethyl-benzenesulfonic acid amide], 86%.
Same read-out and setting: to `COc1cc(C)c(S(=O)(=O)N(C)CCOc2ccnc(N3CC4CC3CN4Cc3ccncc3)n2)c(C)c1` (stereo not shown) [H_CC-034, 4-methoxy-N,2,6-trimethyl-N-[2-[[2-[2-(4-pyridylmethyl)-2,5-diazabicyclo[2.2.1]heptan-5-yl]-4-pyrimidinyl]oxy]ethyl]benzenesulfonamide] belongs 74%.
Regarding `COc1cc(C)c(S(=O)(=O)N2CCCCC2COc2ccnc(N3CCN(C4CCN(C)CC4)CC3)n2)c(C)c1` (stereo not shown) [H_CC-001, 4-[[1-(4-methoxy-2,6-dimethylphenyl)sulfonyl-2-piperidinyl]methoxy]-2-[4-(1-methyl-4-piperidinyl)-1-piperazinyl]pyrimidine], the inhibition at 10 µM was found to be 65%.
With `COc1cc(C)c(S(=O)(=O)N2CCCCC2COc2nccc(N3CCN(C)CC3)n2)c(C)c1` (stereo not shown) [G_CC-009, 2-[[1-(4-methoxy-2,6-dimethylphenyl)sulfonyl-2-piperidinyl]methoxy]-4-(4-methyl-1-piperazinyl)pyrimidine], the inhibition at 10 µM amounted to 63%.
Take `COc1cc(C)c(S(=O)(=O)N2CCCC(Oc3nccc(N4CC5CC4CN5Cc4ccncc4)n3)C2)c(C)c1` (stereo not shown) [G_CC-057, 5-[2-[[1-(4-methoxy-2,6-dimethylphenyl)sulfonyl-3-piperidinyl]oxy]-4-pyrimidinyl]-2-(4-pyridylmethyl)-2,5-diazabicyclo[2.2.1]heptane]: the inhibition at 10 µM was 90%.
Regarding `COc1cc(C)c(S(=O)(=O)N2CC(Oc3ccnc(N4CCC(CCN5CCCC5)CC4)n3)C2)c(C)c1` [H_CC-014, 4-[[1-(4-methoxy-2,6-dimethylphenyl)sulfonyl-3-azetidinyl]oxy]-2-[4-(2-1-pyrrolidinylethyl)-1-piperidinyl]pyrimidine], the inhibition at 10 µM is 53%.
Same read-out and setting: under `COc1cc(C)c(S(=O)(=O)N(C)CCOc2nccc(N3CCC4(CC3)C(=O)NCN4c3ccccc3)n2)c(C)c1` [G_CC-030, 4-methoxy-N,2,6-trimethyl-N-[2-[[4-(1-oxo-4-phenyl-2,4,8-triazaspiro[4.5]decan-8-yl)-2-pyrimidinyl]oxy]ethyl]benzenesulfonamide] stands 79%.
Still for that read-out and setting: to `COc1cc(C)c(S(=O)(=O)N(C)CCOc2ccnc(N(C)CCN3CCC(Oc4ccncc4)CC3)n2)c(C)c1` [H_CC-089, 4-methoxy-N,2,6-trimethyl-N-[2-[2-[methyl-[2-(4-pyridin-4-yloxy-piperidin-1-yl)-ethyl]-amino]-pyrimidin-4-yl]oxy-ethyl]benzenesulfonic acid amide] belongs 58%; to `COc1cc(C)c(S(=O)(=O)N(C)CCOc2nccc(N3CCC(N4CCN(C)CC4)CC3)n2)c(C)c1` [G_CC-006, 4-methoxy-N,2,6-trimethyl-N-[2-[[4-[4-(4-methyl-1-piperazinyl)-1-piperidinyl]-2-pyrimidinyl]oxy]ethyl]benzenesulfonamide], 97%; to `COc1cc(C)c(S(=O)(=O)N2CCCCC2COc2ccnc(N3CCCC3Cc3ccccn3)n2)c(C)c1` (stereo not shown) [H_CC-078, 4-[[1-[(4-methoxy-2,6-dimethyl-phenyl)sulfonyl]-piperidin-2-yl]-methoxy]-2-[2-(pyridin-2-yl-methyl)-pyrrolidin-1-yl]-pyrimidine], 77%.
As to `CCCCC1(N(C)C)CCN(CCN(C)c2nccc(OC[C@@H]3Cc4ccccc4N3S(=O)(=O)c3c(C)cc(OC)cc3C)n2)CC1` [H_CC-058, 2-(4-butyl-4-dimethylamino-piperidin-1-yl)-ethyl-[4-[[(2S)-1-[(4-methoxy-2,6-dimethyl-phenyl)sulfonyl]-2,3-dihydro-1H-indol-2-yl]-methoxy]-pyrimidin-2-yl]-methyl-amine], the inhibition at 10 µM was 97%.
